The numbers were not newly measured in patent US6645994B1, “Method of treating dry eye disorders” (Alcon, Inc., priority 2001, dated 2003), which cites them from elsewhere.

The subject of one series is mucin subtype MUC1. Particulars: literature report, Cornea 2000.
The subject of series [1] is soluble goblet cell mucins (MUC2, MUC5AC). Particulars: literature report, Cornea 2000.
The next series deals with acyl-CoA synthetase. Conditions: compared with triacsins A, B and C.

Regarding `CCCCC[C@H](O)/C=C/C=C\C/C=C\C/C=C\CCCC(=O)O` [15(S)-HETE], in the series on mucin subtype MUC1, the “secretion of mucin subtype MUC1” value is “effective secretagogue”. Also, the “secretion of soluble goblet cell mucins (MUC2, MUC5AC)” value in series [1] is “inability of 15(S)-HETE to stimulate secretion”.
As to `CC/C=C/C=C/C=C/C=C/C=NN=NO` [Triacsin C, 1-hydroxy-3-(E,E,E,E-2′4′6′8′-undecatetraenylidine) triazene], the “relative potency as acyl-CoA synthetase inhibitor among triacsins” value with acyl-CoA synthetase is “most potent of these compounds”.
